# From patent publication US20210347823A1, “METHODS OF PHYSICOCHEMICAL-GUIDED PEPTIDE DESIGN AND NOVEL PEPTIDES DERIVED THEREFROM” (Massachusetts Institute of Technology, priority 2018, published 2021)
# How the values were obtained:
# [1] = tested on: Escherichia coli strain BL21; test: MIC assay (broth microdilution) against E. coli BL21; type: cell-based; settings: E. coli BL21, 24 h, 37° C.
# Excerpt: (§1) FIGS. 2A-2E. Design, physicochemical features and activity of Pol-CP—NH2 and Ala-scan analogs. FIG. 2A. Theoretical physicochemical properties of interest of the wild type and Ala-scan analogs, where H denotes hydrophobicity, μH is the hydrophobic moment, q represents the net charge and P/N is the ratio of polar/non-polar residues in the sequence. Top to bottom, left to right the sequences correspond to SEQ ID NOs: 1-13. FIG. 2B. Schematic of the in vitro biological activity experimental design. Briefly, 10^4 bacterial cells and serially diluted peptides (0-128 μmol L^−1) were added to a 96-well plate and incubated at 37° C. One day after the exposure, the solution in each well was measured in a microplate reader (600 nm) to check inhibition of bacteria compared to the untreated controls and presented as heat maps of antimicrobial activities (μmol L^−1) against four bacteria strains: E. coli strain BL21, S. aureus strain ATCC12600 and P. aeruginosa strains PA01, and PA14. Assays were performed in triplicates. FIG. 2C. Graph correlating MIC (μmol L^−1) averages vs H and (FIG. 2D) MIC (μmol L^−1) averages vs μH, where dots […] the dashed line show peptides with higher activity compared to the wild type, in which one can observe ranges of optimal activity in determined intervals of H and μH values. FIG. 2E. […]
# [2] = tested on: S. aureus strain ATCC12600; test: MIC assay (broth microdilution) against S. aureus ATCC12600; type: cell-based, Staphylococcus aureus; settings: S. aureus ATCC12600, 24 h, 37° C.
# Excerpt: as §1
# [3] = tested on: P. aeruginosa strain PA01; test: MIC assay (broth microdilution) against P. aeruginosa PA01; type: cell-based, Pseudomonas aeruginosa; settings: P. aeruginosa PA01, 24 h, 37° C.
# Excerpt: as §1
# [4] = tested on: P. aeruginosa strain PA14; test: MIC assay (broth microdilution) against P. aeruginosa PA14; type: cell-based, Pseudomonas aeruginosa; settings: P. aeruginosa PA14, 24 h, 37° C.
# Excerpt: as §1
# [5] = tested on: Gram-positive bacteria, Gram-negative bacteria and fungi (twelve different strains); test: Liquid growth inhibition MIC against larger panel of microorganisms (MIC average); type: cell-based; settings: for MIC Average: average of MIC over twelve different strains; for antimicrobial activity: second-generation analogs, larger panel
# Excerpt: FIGS. 5A-5D. Antimicrobial activity of second-generation library of synthetic peptides. FIG. 5A. In vitro activity of Pol-CP—NH2 and second generation of analogs against Gram-positive bacteria (Micrococcus luteus, Staphylococcus aureus, Staphylococcus epidermidis and Bacillus megaterium), Funghi (Candida albicans and Candida tropicalis) and Gram-negative bacteria (Escherichia coli, Enterobacter cloacae and Serratia marcescens). Experiments performed in triplicates. FIG. 5B. MIC (μmol L^−1) average vs fH in TFE/Water solution. FIG. 5C. Graph correlating MIC (μmol L^−1) averages vs H and (FIG. 5D) MIC (μmol L^−1) averages vs μH, where dots above the dashed line represent peptides with lower activity and dots below the dashed line show peptides with higher activity compared to the wild-type, in which one can observe ranges of optimal activity in determined intervals of H and μH values.
# Microorganisms. The following strains were used: Micrococcus luteus A270, Staphylococcus aureus ATCC29213, Staphylococcus epidermidis ATCC12228, Bacillus megaterium ATCC10778 Escherichia coli SBS 363, Enterobacter cloacae ®-12, Serratia marcescens ATCC4112, Candida albicans MDM8, Candida tropicalis IOC4560 from Instituto Butanta, Sao Paulo, Brazil, and Escherichia coli BL21, Pseudomonas aeruginosa PA14, Pseudomonas aeruginosa PA01 and Staphylococcus aureus ATCC12600 from Synthetic Biology Group at MIT.
# MIC assays. The MIC assays were performed using the broth microdilution method (Wiegand I. et al., Protoc. 3, 163-175 (2008); de la Fuente-Núñez C. et al., Antimicrob. Agents Chemother. 56, 2696-2704 (2012)) in sterile 96-well polypropylene microtiter plates. Peptides were added to the plate as solutions in BM2 minimal medium in concentrations ranging from 0 to 128 ? mol L^−1, and the bacteria were inoculated at a final concentration of 5×10^5 CFU mL^−1 per well. The plates were incubated at 37° C. for 24 h. The MIC was defined as the lowest concentration of compound at which no growth was observed. Additional liquid growth inhibition assays were done in Peptone Broth (PB, 0.5% NaCl, 1% Peptone at pH 7.4) and Potato Dextrose Broth (Invitrogen) were used for antibacterial and antifungal assays, respectively. Briefly, bacteria or fungi were incubated with serial dilutions of polybia-CP and analogs (50-0.09 μmol L^−1) in a 96-well microplate at 37° C. The microbial growth was assessed by measurements in a model 354 Multiskan Ascent microplate reader at A595nm, after 18 and 24 h (bacteria and fungi, respectively) incubation on a model 347CD FANEM incubator. MIC was defined as the minimal inhibitory concentration that prevents 100% of the bacterial growth. All assays were done in triplicate.
# P. aeruginosa = test: MIC against P. aeruginosa (strain not given); type: cell-based, Pseudomonas aeruginosa
# Excerpt: as §1
Substance,MIC [1] [µM],MIC [2] [µM],MIC [3] [µM],MIC [4] [µM],MIC Average [5] [µM],MIC against P. aeruginosa (P. aeruginosa; strain not stated) [µM],antimicrobial activity ([5]; listed as [Lys]'-Pol-CP—NH2),antimicrobial activity ([5]; listed as [Lys]^7-Pol-CP—NH2),"activity against P. aeruginosa (P. aeruginosa; in vitro, selection of peptides for the mouse model)"
"H-ILGTILGLLKSL-NH2 [WT, ILGTILGLLKSL-NH2, reference compound]",8.0,64.0,64.0,64.0,16.2,64,,,
"H-ILGTILKLLKSL-NH2 [Peptide 16, ILGTILKLLKSL-NH2]",,,,,1.4,,impacted favorably both structure and antimicrobial activity,most active,high activity
